Test results published in patent US5478808A, “2-amino-6,7-dihydroxy-4-thiaheptanoic acid derivatives, production and use thereof” (Takeda Chemical Industries, Ltd., priority 1992, dated 1995).

Key:
[1] = test system: bone marrow cells of BALB/c mice; test: Enhancing proliferation of bone marrow cells of mice (MTT reduction method); format: cell-based, mouse; conditions: concentration giving 1.3 or more times the proliferation of the group without test compound; 3 days incubation
Method: To an RPMI 1640 culture medium [Bio-Wittaker Inc. (hereinafter abbreviated as BW), USA] containing 2×10^6 /ml of bone marrow cells of BALB/c mice, 2 mM of L-glutamine, 20 ug/ml of gentamicin (Flow Laboratories, Inc., Scotland), 10% fetal calf serum (BW, USA) was added a test compound in an adequate concentration, which was incubated at 37° C. for 3 days in 5% carbon dioxide in air followed by determination of proliferation of the bone marrow cells by the MTT reduction method [Tada et al., Journal of Immunological Methods, Vol. 93, p.157, 1986].

mouse = test: Toxicity test, intraperitoneal; format: in vivo; conditions: 100 mg/kg
[2] = test system: peripheral blood leukocytes of CDF1/Crj mice; test: Enhancing the number of leukocytes in cyclophosphamide-treated mice; format: in vivo, mouse; conditions: cyclophosphamide 150 mg/kg p.o., then compound 0.063 mg/kg/day s.c. for 5 days; mice without cyclophosphamide = 100%
Method: Six week old female CDF1/Crj mice (5 animals/group) were subjected to the experiment. […] From the next day, each animal was administered subcutaneously with the compound suspended in 5% glucose at the following dosages for five days once a day. On the next day after completion of the administration, about 100 μl of peripheral blood was collected from orbital vein using an EDTA-treated glass capillary. Then, the number of lekocytes was counted using a automatic cell analyzer (Sysmex K-2000, Toa Medical Electronics, Japan)

Substance	Minimal Effective Concentration (MEC) [1] [ng/mL]	Mortality (mouse)	Number of leukocytes [2] [%]
(2R,6R)-2-amino-6,7-bis(PamO)-4-THT-NH(CH2)7 CO-Glu-OH hydrochloride [Compound 36]	< 0.156	–	–
(2S,6R)-2-amino-6,7-bis(PamO)-4-THT-Gly-Gly-Gly-Glu-Thr-Thr-OH [Compound 3]	–	No mouse administered intraperitoneally with Compound 3 at a dose of 100 mg/kg was found dead	–
(2R,6R)-2-amino-6,7-bis(PamO)-4-THT-Gly-Gly-Gly-Glu-Thr-Thr-OH [Compound 2]	< 0.156	–	102
